According to PMC6201879, “N-substituted phenylbenzamides of the niclosamide chemotype attenuate obesity related changes in high fat diet fed mice” (PLoS ONE, 2018):
Where two headings read alike, the source gives them in different places.

Experiments:
[1] = Metabolic stability in human liver microsomes; assay type: in vitro ADME
How it was run: (§1)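 Microsomes at 0.5 mg/ml in 100 mM phosphate buffer with 5 mM MgCl2, run with 1 mM NADPH, without NADPH, and heat-inactivated without NADPH. Timed samples quenched in cold acetonitrile with internal standards; parent measured by LC/MS/MS (MRM), duplicates.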

[2] = Pharmacokinetic profile in Sprague Dawley rats (IV and PO); assay type: in vivo; conditions: Mean + SD (n = 3)
Experimental: To evaluate the pharmacokinetic profile by oral (PO) and intravenous (IV) administration routes we used 6 to 8-week old Sprague Dawley rats weighing approximately 200-330g (n = 3 per study group). Compounds were administered at 1mg/kg in 5% Cremophor EL and 20% PEG400 in water for IV and 5mg/kg in PBS for PO. All dose formulation was performed at room temperature. Animals were fasted overnight prior to dosing and were re-fed approximately 4 hours after dosing. For PO, 0.2ml of blood was collected pre- and 0.5, 1, 2, 4 8 12 and 24-hours after drug delivery and transferred to EDTA-K2 BD Vacutainer plastic blood collection tubes. IV samples were collected pre-injection and 0.08, 0.25, 0.5, 1, 2, 4, 8, 12, 24-hours post injection. Blood samples were centrifuged at 2,000 g for 5 minutes at 4°C to obtain plasma. Plasma samples were stored at -75±15°C prior to analysis and then thawed and analyzed by LC-MS/MS method and pharmacokinetic calculations were performed using WinNolin (Phoenix, version 6.4). For IV administration: T1/2, C0, AUClast, AUCinf, MRT, Cl, Vss, and number of points for regression were determined. For PO administration: T1/2, Cmax, Tmax, AUCinf, AUClast, F(0-∞) %, and number of points for regression were determined. Data are reported as mean and standard deviation.

[3] = test system: Salmonella typhimurium TA100; conditions: for Mean Revertant Colony Counts TA-100 SP9+: with S9; for Mean Revertant Colony Counts TA-100 S9-: without S9
[4] = test system: Salmonella typhimurium TA98; assay: Ames assay, strain TA98; conditions: for Mean Revertant Colony Counts TA98 SP9+: with S9; for Mean Revertant Colony Counts TA98 S9-: without S9
[5] = test system: HEK293 cells stably transduced with the human OCT3 transporter; assay: Cellular oxygen consumption rate (OCR), MitoXpress Xtra; assay type: cell-based; conditions: HEK293 cells expressing human OCT3; four concentrations
How it was run: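 HEK293 cells stably expressing human OCT3, treated with four compound concentrations; oxygen consumption followed by MitoXpress Xtra TR-F lifetime (340/650 nm) every 2 min for 2 h. Lifetime slope from the linear portion taken as OCR; FCCP (1 μM) as stimulated control, differences versus DMSO by t-test.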

[6] = Metabolic stability in mouse liver microsomes; assay type: in vitro ADME
How it was run: as §1

[7] = any concentration tested, vs negative control

With `CC(C)(C)c1cc(C(=O)Nc2ccc(C(=O)O)cc2Cl)c(O)c(C(C)(C)C)c1` [Compound 600453, 3-Chloro-4-[(3,5-di-tert-butyl-2-hydroxybenzene)amido]benzoic acid] the “Remaining Percentage of 60 min (%), Human, Tested Sample” value ([1]; 0.5mg/ml microsomes and 1mM NADPH) was 58.8%, the “Remaining Percentage of 60 min (%), Human, Negative Control” value ([1]; 0.5mg/ml microsomes without NADPH) was 92.2% and the “Remaining Percentage of 60 min (%), Human, Heat-inactivated Control” value ([1]; heat inactivated microsomes without NADPH) was 93.7%. The “AUC _%Extrap_obs (IV)” value ([2]; IV 1 mg/kg) was 0.50 +/-0.114%, the AUCl ast/D (IV) ([2]; IV 1 mg/kg) was 5400 ± 683 ng·kg·h/mL/mg and the “V ss_obs” value ([2]; IV 1 mg/kg) was 0.60 ± 0.076 L/kg. For the same molecule, the “AUC _%Extrap_obs (PO)” value ([2]; PO 5 mg/kg in PBS) was 2.22 +/- 1.36%, the AUC last / D (PO) ([2]; PO 5 mg/kg in PBS) was 3390 ± 551 ng·kg·h/mL/mg and the “T 1/2 (PO)” value ([2]; PO 5 mg/kg in PBS, 5 mg/kg) was 3.91 ± 0.75 h. The “F (oral bioavailability)” value ([2]; PO 5 mg/kg vs IV 1 mg/kg) was 63.91 +/- 10.5%, the half-life ([2]; Sprague Dawley, rat, plasma, iv, 1 mg/kg, IV 1 mg/kg, read-out: T 1/2 (IV) (converted)) was 3.68 ± 0.13 h and the Cmax ([2]; Sprague Dawley, rat, plasma, po, 5 mg/kg, PO 5 mg/kg in PBS) was 2050 ± 558 ng/mL. It also gave a half-life ([2]; Sprague Dawley, rat, plasma, po, 5 mg/kg, PO 5 mg/kg in PBS, read-out: T 1/2 (PO) (converted)) of 3.9 h, a bioavailability ([2]; Sprague Dawley, rat, plasma, po, 5 mg/kg, PO 5 mg/kg vs IV 1 mg/kg, read-out: F (oral bioavailability)) of 64% and a C0 ([2]; rat, plasma, IV 1 mg/kg) of 2816 ± 7.02 ng/mL. It also gave an AUC(0-inf) ([2]; rat, plasma, IV 1 mg/kg, read-out: AUC Inf (IV)) of 5420 ± 689 ng·h/mL, an AUC(0-t) ([2]; rat, plasma, IV 1 mg/kg, read-out: AUC last (IV)) of 5400 ± 683 ng·h/mL and a clearance ([2]; rat, plasma, IV 1 mg/kg, read-out: Cl_obs) of 3.11 ± 0.42 mL/min/kg. It also gave an MRT inf ([2]; rat, plasma, IV 1 mg/kg, read-out: MRT Inf_obs (IV)) of 3.22 ± 0.32 h, a Tmax ([2]; rat, plasma, PO 5 mg/kg in PBS) of 4 h and an AUC(0-inf) ([2]; rat, plasma, PO 5 mg/kg in PBS, read-out: AUC Inf (PO)) of 17300 ± 2850 ng·h/mL. The AUC(0-t) ([2]; rat, plasma, PO 5 mg/kg in PBS, read-out: AUC last (PO)) was 16900 ± 2750 ng·h/mL, the MRT inf ([2]; rat, plasma, PO 5 mg/kg in PBS, read-out: MRT Inf_obs (PO)) was 7.4 ± 0.44 h and the “Mean Revertant Colony Counts TA-100 SP9+” value ([3]; 1.5 ug/Well) was 17.3. For the same molecule, the “Mean Revertant Colony Counts TA-100 S9-” value ([3]; 1.5 ug/Well) was 35.0, the “Mean Revertant Colony Counts TA-100 SP9+” value ([3]; 4 ug/Well) was 21.3 and the “Mean Revertant Colony Counts TA-100 S9-” value ([3]; 4 ug/Well) was 30.0. The “Mean Revertant Colony Counts TA-100 SP9+” value ([3]; 10 ug/Well) was 27.0, the “Mean Revertant Colony Counts TA-100 S9-” value ([3]; 10 ug/Well) was 33.3 and the “Mean Revertant Colony Counts TA-100 SP9+” value ([3]; 25 ug/Well) was 34.0. For the same molecule, the “Mean Revertant Colony Counts TA-100 S9-” value ([3]; 25 ug/Well) was 24.0, the “Mean Revertant Colony Counts TA-100 SP9+” value ([3]; 64 ug/Well) was 31.7 and the “Mean Revertant Colony Counts TA-100 S9-” value ([3]; 64 ug/Well) was 26.3. The “Mean Revertant Colony Counts TA-100 SP9+” value ([3]; 160 ug/Well) was 24.3, the “Mean Revertant Colony Counts TA-100 S9-” value ([3]; 160 ug/Well) was 21.3 and the “Mean Revertant Colony Counts TA-100 SP9+” value ([3]; 400 ug/Well) was 29.3. The “Mean Revertant Colony Counts TA-100 S9-” value ([3]; 400 ug/Well) was 8.0, the “Mean Revertant Colony Counts TA-100 SP9+” value ([3]; 1000 ug/Well) was 15.7 and the “Mean Revertant Colony Counts TA-100 S9-” value ([3]; 1000 ug/Well) was 2.7. The “fold increase in the mean number of revertant colonies, TA100” value [3, 7] was under 2 fold, the “Mean Revertant Colony Counts TA98 SP9+” value ([4]; 1.5 ug/Well) was 5.0 and the “Mean Revertant Colony Counts TA98 S9-” value ([4]; 1.5 ug/Well) was 4.3. For the same molecule, the “Mean Revertant Colony Counts TA98 SP9+” value ([4]; 4 ug/Well) was 8.3, the “Mean Revertant Colony Counts TA98 S9-” value ([4]; 4 ug/Well) was 3.7 and the “Mean Revertant Colony Counts TA98 SP9+” value ([4]; 10 ug/Well) was 7.7. For the same molecule, the “Mean Revertant Colony Counts TA98 S9-” value ([4]; 10 ug/Well) was 3.3, the “Mean Revertant Colony Counts TA98 SP9+” value ([4]; 25 ug/Well) was 6.3 and the “Mean Revertant Colony Counts TA98 S9-” value ([4]; 25 ug/Well) was 3.0. The “Mean Revertant Colony Counts TA98 SP9+” value ([4]; 64 ug/Well) was 8.7, the “Mean Revertant Colony Counts TA98 S9-” value ([4]; 64 ug/Well) was 6.0 and the “Mean Revertant Colony Counts TA98 SP9+” value ([4]; 160 ug/Well) was 6.3. For the same molecule, the “Mean Revertant Colony Counts TA98 S9-” value ([4]; 160 ug/Well) was 3.7, the “Mean Revertant Colony Counts TA98 SP9+” value ([4]; 400 ug/Well) was 7.3 and the “Mean Revertant Colony Counts TA98 S9-” value ([4]; 400 ug/Well) was 2.0. For the same molecule, the “Mean Revertant Colony Counts TA98 SP9+” value ([4]; 1000 ug/Well) was 4.0, the “Mean Revertant Colony Counts TA98 S9-” value ([4]; 1000 ug/Well) was 3.7 and the “fold increase in the mean number of revertant colonies, TA98” value [4, 7] was under 2 fold. The “concentration dependence of OCR change” value [5] was “significantly decreased OCR at all concentrations above 300nM”, the “Remaining Percentage of 60 min (%), Mouse, Tested Sample” value ([6]; 0.5mg/ml microsomes and 1mM NADPH, 60 min) was 88.1% and the “Remaining Percentage of 60 min (%), Mouse, Negative Control” value ([6]; 0.5mg/ml microsomes without NADPH, 60 min) was 109.7%. The “stability in MLM” value ([6]; 60 minutes) was “stable” and the “Remaining Percentage of 60 min (%), Mouse, Heat-inactivated Control” value ([6]; heat inactivated microsomes without NADPH, 60 min) was 91.4%.
